14 molecules from ChEMBL document CHEMBL4007466, “Bioactive drimane sesquiterpenoids and aromatic glycosides from Cinnamosma fragrans” (Bioorg Med Chem Lett, 2017) can be followed below.

Each structure is given as a SMILES string. Bounds are passed on as bounds.

This assay relates to MCF7. Put plainly: Antiproliferative activity against human MCF7 cells by SRB assay. In kind it is functional, cell-based. For orientation: The SRB assay estimates cell density from bound dye.
Molecule `CC1(C)CCC[C@]2(C)[C@H]3COC(=O)C3=CC[C@@H]12` [CINNAMOLIDE] came in with an IC50 of over 20 µM.

Molecule `Cc1ccc2c(c1)C(C(C)C)CCC2=O` (centres undefined) registered an IC50 of over 20 µM.

The molecule `CC(=O)O[C@@H]1C=C([C@H]2O[C@@H]3OC(O)C4=C[C@@H](OC(C)=O)[C@H]5C(C)(C)CCC[C@]5(C)[C@]43O2)[C@](O)(C=O)[C@@]2(C)CCCC(C)(C)[C@H]12` (some centres undefined) showed an IC50 of 0.6 µM. This lies in the sub-micromolar range.

In the case of `CC(=O)O[C@@H]1C=C2C(=O)O[C@@H]3O[C@H](C4=C[C@@H](OC(C)=O)[C@H]5C(C)(C)CCC[C@]5(C)C4=O)O[C@@]23[C@@]2(C)CCCC(C)(C)[C@H]12`, the IC50 came to 3.7 µM. This IC50 is about 6.2-fold higher than that of the molecule before.

Consider `C[C@@H]1O[C@@H](OC[C@H]2O[C@@H](OC(=O)[C@@]3(C)CCC[C@]4(C)C5=C(COC5=O)[C@@H](O)C[C@@H]34)[C@H](O)[C@@H](O)[C@@H]2O)[C@H](O)[C@H](O)[C@H]1O`, for which the IC50 is over 20 µM.

For the molecule `CC1(C)CCC[C@]2(C)[C@@H](C=O)C(C=O)=CC[C@@H]12` [POLYGODIAL], the IC50 worked out at 12.4 µM. This lies in the double-digit micromolar range.

In turn, `COc1ccc(O[C@@H]2O[C@H](CO[C@@H]3OC[C@](O)(CO)[C@H]3O)[C@@H](O)[C@H](O)[C@H]2O)cc1OC` displayed an IC50 of over 20 µM.

`CC(=O)O[C@@H]1C=C(C=O)[C@@](O)(C=O)[C@@]2(C)CCCC(C)(C)[C@H]12` returned an IC50 of 1.6 µM.

Molecule `CC(=O)O[C@@H]1C=C([C@H]2O[C@@H]3OC(=O)C4=C[C@@H](OC(C)=O)[C@H]5C(C)(C)CCC[C@]5(C)[C@]43O2)[C@](O)(C=O)[C@@]2(C)CCCC(C)(C)[C@H]12` showed an IC50 of 2 µM.

`CC(=O)O[C@@H]1C=C2C(=O)OC[C@]2(O)[C@@]2(C)CCCC(C)(C)[C@H]12` [CINNAMOSMOLIDE]: 1.3 µM corresponded to half-maximal inhibition (IC50).

Molecule `CC[C@@]1(O)C(=O)OCc2c1cc1n(c2=O)Cc2cc3ccccc3nc2-1` [CAMPTOTHECIN] showed an IC50 of 0.03 µM.

On to `COc1cc(O[C@@H]2O[C@H](CO[C@@H]3OC[C@](O)(CO)[C@H]3O)[C@@H](O)[C@H](O)[C@H]2O)cc(OC)c1OC`, for which the IC50 is over 20 µM.

The molecule `O=Cc1ccc(O[C@@H]2O[C@H](CO)[C@@H](O)[C@@H](O)[C@H]2O)cc1` [HELICIDE] came in with an IC50 of over 20 µM.

For `CC1=C(C=O)[C@@]2(C)CCCC(C)(C)[C@@H]2CC1=O`, the IC50 is over 20 µM.

The IC50 is the midpoint of a concentration-inhibition curve. A low value points to greater potency.
